Laboratory results taken from patent US20160213635A1, “COMPOSITIONS USEFUL IN THE PREVENTION OR TREATMENT OF SKIN CANCER” (GIULIANI S.P.A., priority 2013, published 2016).

Legend:
[1] = system: NHKs cells; assay: Flow cytometric (annexin V) assessment of apoptosis induced by UV irradiation and subsequent treatment with G01; format: cell-based, human; conditions: post-treatment 90 μM; UVA 25 J/cm^2, UVB 80 mJ/cm^2; 24 h
Experimental: The NHKs cells were plated in the specific culture medium and maintained in culture for 24±2 h to allow adhesion to the plate. Each experimental condition was plated in duplicate. Subsequently, the plates identified as +UVA, +G01/UVA, +UVB, and +G01/UVB were respectively exposed, in the irradiation medium, to doses of UVA of 25 J/cm^2 and UVB of 80 mJ/cm^2, while the control plates (Ctr) and those treated only with the compound under examination (G01) were maintained in the dark and at room temperature for a period of time equal to the irradiation time. The irradiation medium was then replaced with the culture medium containing the compound G01 in a concentration of 90 μM. Based on the preliminary results obtained on a broader time range, a post-treatment time of 24 h was selected, after which the plates were processed according to the procedure given in the user manual of the specific kit for annexin V flow cytometric analysis. The positivity for annexin V in each condition tested (treatment with the compound of the invention under examination and/or UVA/UVBirradiation) was compared with the positivity in the control cells.

[2] = system: NHKs cells; assay: ELISA 8-OHdG determination after UVA irradiation and subsequent treatment with G01; format: cell-based, human; conditions: post-treatment 90 μM; UVA 10 J/cm^2; both post-treatment times 6 h and 24 h; vs cells only irradiated
Experimental: The NHKs cells were plated in the specific culture medium and maintained in culture for 24±2 h to allow adhesion to the plate. Then, the plates identified as +UVA and +UVA/G01 post were respectively exposed, in the irradiation medium, to a UVA dose of 10 J/cm^2. The irradiation medium was then replaced with the culture medium containing the compound of the invention G01, in a concentration of 90 μM. Based on preliminary results obtained on a broader time range, post-treatment times of 6 h and 24 h were selected, after which the plates were processed according to the procedure described in the work instruction specific for the DNA extraction. The determination of 8-OHdG, marker of DNA oxidative damage induced by UVA, was performed using a specific ELISA kit following the procedure described in the user manual.

[3] = system: NHKs cells; assay: Western Blot assessment (non-cleaved caspase 3) of apoptosis induced by UV irradiation and subsequent treatment with G01; format: cell-based, human; conditions: post-treatment 90 μM; UVA 25 J/cm^2, UVB 80 mJ/cm^2; 24 h
Experimental: The NHKs cells were plated in the specific culture medium and maintained in culture for 24±2 h to allow adhesion to the plate. Subsequently, the plates identified as +UVA, +G01/UVA, +UVB, and +G01/UVB were respectively exposed, in the irradiation medium, to doses of UVA of 25 J/cm^2 and UVB of 80 mJ/cm^2, while the control plates (Ctr) and those treated only with the compound under examination (G01) were maintained in the dark and at room temperature for a period of time equal to the irradiation time. The irradiation medium was then replaced with the culture medium containing the compound G01, in a concentration of 90 μM. Based on the preliminary results obtained on a broader time range, a post-treatment time of 24 h was selected, after which the plates were processed for Western Blot protein determination. The protein expression of non-cleaved caspase 3 in each condition tested (treatment with the compound G01 under examination and/or UVA/UVB irradiation) was compared with the expression in the control cells.

[4] = system: NHKs cells; assay: Immunofluorescence of phosphorylated histone γH2AX after UVA or UVB irradiation and subsequent treatment with G01; format: cell-based, human; conditions: post-treatment 90 μM; UVA 10 J/cm^2 or UVB 25 mJ/cm^2; 24 h; vs cells only irradiated
Experimental: The NHKs cells were plated in the specific culture medium and maintained in culture for 24±2 h to allow adhesion to the plate. Subsequently, the plates identified as +UVA, +UVA/G01 post, UVB, and +UVB/G01 post were respectively exposed, in irradiation medium, to doses of UVA of 10 J/cm^2 or UVB of 25 mJ/cm^2. The irradiation medium was then replaced with the culture medium containing the compound of the invention G01, in a concentration of 90 μM. Based on preliminary results obtained on a broader time range, a post-treatment time of 24 h was selected, after which the plates were processed for the immunofluorescence determination of the protein expression of the phosphorylated histone γH2AX, whose expression is associated to the amount of DNA damage (double strand breaks). The protein expression of the phosphorylated histone γH2AX after treatment with the compound of the invention G01, or only after irradiation with UVA/UVB, was compared with the expression in the control cells.

[5] = system: primary cultures of human keratinocytes, NHKs; assay: Cell viability (incorporation of NR) after pre-treatment with G01 and subsequent UV irradiation; format: cell-based; conditions: pre-treatment 24±2 h; UVA 10 J/cm^2, UVB 25 mJ/cm^2; particularly 48 h after irradiation; particularly significant at 90 μM
Experimental: The cells were plated in the specific culture medium and maintained in culture for 24±2 h to allow adhesion to the plate. The cells were treated for 24±2 h with the concentrations of the compound G01 under evaluation, selected based on the previous results. Subsequently, the cells in the plates identified as +UVA and +UVB were respectively exposed, in the irradiation medium, to doses of UVA of 10 J/cm^2 and UVB of 25 mJ/cm^2, while the control plate was maintained in the dark and at room temperature for a period of time equal to the irradiation time. The irradiation medium was then replaced with the culture medium. The cell viability was measured (incorporation of NR) 24±2 h and 48±2 h after the irradiation, following examination of the morphology of the cells under a microscope, in the absence and the presence of treatment with G01 and/or UVA/UVB irradiation. The cell viability values for each condition tested were compared with the value obtained from the control and plotted on a graph to highlight any differences between the various experimental conditions.

[6] = system: NHKs cells; assay: Western Blot assessment of ability to repair DNA damage after pre-treatment with G01 and subsequent UV irradiation; format: cell-based, human; conditions: after UVB irradiation 25 mJ/cm^2, 6 h
Experimental: The NHKs cells were plated in the specific culture medium and maintained in culture for 24±2 h to allow adhesion to the plate. Then, the keratinocytes were treated for 24±2 h with the compound of the invention G01, at concentrations of 60 μM and 90 μM. Subsequently, the plates identified as +UVA, +G01/UVA, +UVB, and +G01/UVB were respectively exposed, in the irradiation medium, to doses of UVA of 10 J/cm^2 and UVB of 25 mJ/cm^2, while the control plates (Ctr) and those treated only with G01 were maintained in the dark and at room temperature for a period of time equal to the irradiation time. The irradiation medium was then replaced with the culture medium. Based on the preliminary results obtained on a broader time range, a post-treatment time of 6 h was selected, after which the plates were processed for Western Blot protein determination.
For each condition tested (treatment with G01 and/or UVA/UVB irradiation), the protein expression of the phosphorylated histone γH2AX, p53 and GADD45a (growth arrest and DNA damage response gene), known markers of DNA damage induced by UV radiation, was compared with the expression in the control cells (Ctr).

For `C/C=C/C=C/C=C/C(=O)O` [G01, 2,4,6-trans-octatrienoic acid], the “apoptosis (positivity for annexin V) induced by UVA and UVB” value [1] was “reduce the apoptosis”, the “amount of 8-OHdG produced by UVA radiation” value [2] was “significant reduction” and the “caspase 3 activation (protein expression of non-cleaved caspase 3)” value [3] was “reduce caspase 3 activation”. For the same molecule, the “fraction of phosphorylated histone γH2AX” value [4] was “significant reduction”, the “cell viability after UVA/UVB irradiation” value [5] was “general protective effect of cell viability” and the “fraction of phosphorylated histone γH2AX” value [6] was “reduced fraction”.
